The numbers were not newly measured in patent US9945862B2, “Biomarkers for predicting and assessing responsiveness of thyroid and kidney cancer subjects to lenvatinib compounds” (Eisai R&D Management Co., Ltd., priority 2011, dated 2018), which cites them from elsewhere.

The subject of the data set is xenograft models of various tumors. The note with it: by inhibiting angiogenesis; cited from earlier work.

Regarding `COc1cc2nccc(Oc3ccc(NC(=O)NC4CC4)c(Cl)c3)c2cc1C(N)=O` [Lenvatinib, 4-(3-chloro-4(cyclopropylaminocarbonyl)aminophenoxy)-7-methoxy-6-quinolinecarboxamide], the Anti-tumor effect entry is “potent anti-tumor effects”.
